How the values were obtained:
[1] = target: T1, AURKB (Homo sapiens, UniProt Q96GD4); assay: KdELECT binding assay
T1 construct: purchased Eurofins DiscoverX

[2] = target: CaMK4 (Homo sapiens, UniProt Q16566); assay: KiNativ, OCI cells live cell; assay type: cell-based; settings: 2 h, labeling site Lys2, peptide […]
[3] = target: CDC2 (Homo sapiens, UniProt P06493); assay: KiNativ, OCI cells live cell; assay type: cell-based; settings: 2 h
[4] = target: CDK4 (Homo sapiens, UniProt P11802); assay: KiNativ, OCI cells live cell; assay type: cell-based; settings: 2 h, labeling site Lys2, peptide […]
[5] = target: CRK7 (Homo sapiens, UniProt Q9NYV4); assay: KiNativ, OCI cells live cell; assay type: cell-based; settings: labeling site Lys2, peptide DIKCSNILLNNSGQIK
[6] = target: Erk1 (Homo sapiens, UniProt P27361); assay: KiNativ, OCI cells live cell; assay type: cell-based; settings: 2 h, labeling site Lys2, peptide […]
[7] = target: T2, ILK (Homo sapiens, UniProt Q13418); assay: KiNativ, OCI cells live cell; assay type: cell-based; settings: 2 h
T2 sequence (Q13418 1-452): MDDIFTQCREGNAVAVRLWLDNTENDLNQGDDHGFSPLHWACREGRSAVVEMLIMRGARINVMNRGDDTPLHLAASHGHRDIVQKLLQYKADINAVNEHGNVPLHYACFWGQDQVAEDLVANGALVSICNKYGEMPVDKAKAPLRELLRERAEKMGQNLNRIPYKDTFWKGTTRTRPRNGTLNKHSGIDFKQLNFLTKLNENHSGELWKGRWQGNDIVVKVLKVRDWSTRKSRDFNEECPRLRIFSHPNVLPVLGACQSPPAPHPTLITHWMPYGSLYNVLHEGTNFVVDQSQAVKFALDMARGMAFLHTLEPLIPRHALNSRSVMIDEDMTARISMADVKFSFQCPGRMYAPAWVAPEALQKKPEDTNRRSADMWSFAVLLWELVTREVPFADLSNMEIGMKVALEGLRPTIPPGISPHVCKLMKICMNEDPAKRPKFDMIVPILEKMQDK

[8] = target: LYN (Homo sapiens, UniProt P07948); assay: KiNativ, OCI cells live cell; assay type: cell-based; settings: 2 h
Sequence of LYN (P07948 whole entry): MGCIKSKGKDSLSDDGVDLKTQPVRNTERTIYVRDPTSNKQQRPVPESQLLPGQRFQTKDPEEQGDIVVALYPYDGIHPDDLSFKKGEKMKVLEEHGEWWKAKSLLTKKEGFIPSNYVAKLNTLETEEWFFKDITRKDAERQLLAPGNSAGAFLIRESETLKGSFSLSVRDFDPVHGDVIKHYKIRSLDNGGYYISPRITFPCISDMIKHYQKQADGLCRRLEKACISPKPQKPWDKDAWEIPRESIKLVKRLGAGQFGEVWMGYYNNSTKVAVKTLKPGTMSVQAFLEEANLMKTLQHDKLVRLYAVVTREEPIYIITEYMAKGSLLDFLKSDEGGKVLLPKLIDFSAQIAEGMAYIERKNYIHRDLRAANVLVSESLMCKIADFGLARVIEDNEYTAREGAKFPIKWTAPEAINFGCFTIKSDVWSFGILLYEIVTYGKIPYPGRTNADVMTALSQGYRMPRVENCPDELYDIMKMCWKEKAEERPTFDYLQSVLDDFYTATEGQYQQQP

[9] = system: MAP2K1, MAP2K2; assay: KiNativ, OCI cells live cell; assay type: cell-based, human; settings: labeling site Lys2, peptide DVKPSNILVNSR
[10] = target: MAP3K1 (Homo sapiens, UniProt Q13233); assay: KiNativ, OCI cells live cell; assay type: cell-based; settings: 2 h, labeling site Lys2, peptide […]
[11] = target: MAP4K5 (Homo sapiens, UniProt Q9Y4K4); assay: KiNativ, OCI cells live cell; assay type: cell-based; settings: 2 h
Sequence of MAP4K5 (Q9Y4K4 whole entry): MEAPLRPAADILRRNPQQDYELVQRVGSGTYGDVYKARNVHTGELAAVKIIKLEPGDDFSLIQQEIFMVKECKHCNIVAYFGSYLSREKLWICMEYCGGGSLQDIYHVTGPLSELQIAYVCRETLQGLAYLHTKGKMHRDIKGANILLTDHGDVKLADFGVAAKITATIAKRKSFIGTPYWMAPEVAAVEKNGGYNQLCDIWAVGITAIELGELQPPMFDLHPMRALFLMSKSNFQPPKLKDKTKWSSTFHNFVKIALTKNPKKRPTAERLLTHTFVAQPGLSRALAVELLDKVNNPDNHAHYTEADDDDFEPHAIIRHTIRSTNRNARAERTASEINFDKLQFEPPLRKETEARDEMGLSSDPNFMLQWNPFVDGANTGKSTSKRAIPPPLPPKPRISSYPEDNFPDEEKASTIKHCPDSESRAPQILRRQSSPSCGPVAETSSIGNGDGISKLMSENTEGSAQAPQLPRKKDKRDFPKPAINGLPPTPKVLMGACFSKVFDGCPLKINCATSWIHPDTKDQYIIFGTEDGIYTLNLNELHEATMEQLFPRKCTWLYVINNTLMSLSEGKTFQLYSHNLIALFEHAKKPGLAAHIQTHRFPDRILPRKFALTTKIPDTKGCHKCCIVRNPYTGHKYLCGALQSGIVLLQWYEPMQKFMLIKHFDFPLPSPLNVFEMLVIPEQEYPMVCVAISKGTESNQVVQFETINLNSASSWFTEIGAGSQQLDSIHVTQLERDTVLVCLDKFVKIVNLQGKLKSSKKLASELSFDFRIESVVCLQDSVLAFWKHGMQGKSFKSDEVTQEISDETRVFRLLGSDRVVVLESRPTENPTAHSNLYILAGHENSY

[12] = system: NDR1, NDR2; assay: KiNativ, OCI cells live cell; assay type: cell-based, human; settings: labeling site Activation Loop, peptide LSDFGLCTGLKK
[13] = target: NDR2 (Homo sapiens, UniProt Q9Y2H1); assay: KiNativ, OCI cells live cell; assay type: cell-based; settings: 2 h
Sequence of NDR2 (Q9Y2H1 whole entry): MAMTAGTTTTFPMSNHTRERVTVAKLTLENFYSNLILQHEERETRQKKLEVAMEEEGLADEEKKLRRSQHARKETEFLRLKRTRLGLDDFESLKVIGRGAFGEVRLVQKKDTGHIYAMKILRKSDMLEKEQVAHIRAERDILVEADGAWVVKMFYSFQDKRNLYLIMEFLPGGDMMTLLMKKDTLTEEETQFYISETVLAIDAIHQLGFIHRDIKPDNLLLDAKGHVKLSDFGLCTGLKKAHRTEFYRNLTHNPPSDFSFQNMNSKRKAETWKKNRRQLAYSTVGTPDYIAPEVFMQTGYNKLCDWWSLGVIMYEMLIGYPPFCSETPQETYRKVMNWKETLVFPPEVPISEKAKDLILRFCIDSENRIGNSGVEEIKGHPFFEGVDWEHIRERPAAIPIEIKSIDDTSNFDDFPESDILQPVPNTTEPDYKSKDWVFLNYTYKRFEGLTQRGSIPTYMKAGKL

[14] = target: T3, PAN3 (Homo sapiens, UniProt Q58A45); assay: KiNativ, OCI cells live cell; assay type: cell-based; settings: 2 h, labeling site ATP
T3 sequence (Q58A45 1-887): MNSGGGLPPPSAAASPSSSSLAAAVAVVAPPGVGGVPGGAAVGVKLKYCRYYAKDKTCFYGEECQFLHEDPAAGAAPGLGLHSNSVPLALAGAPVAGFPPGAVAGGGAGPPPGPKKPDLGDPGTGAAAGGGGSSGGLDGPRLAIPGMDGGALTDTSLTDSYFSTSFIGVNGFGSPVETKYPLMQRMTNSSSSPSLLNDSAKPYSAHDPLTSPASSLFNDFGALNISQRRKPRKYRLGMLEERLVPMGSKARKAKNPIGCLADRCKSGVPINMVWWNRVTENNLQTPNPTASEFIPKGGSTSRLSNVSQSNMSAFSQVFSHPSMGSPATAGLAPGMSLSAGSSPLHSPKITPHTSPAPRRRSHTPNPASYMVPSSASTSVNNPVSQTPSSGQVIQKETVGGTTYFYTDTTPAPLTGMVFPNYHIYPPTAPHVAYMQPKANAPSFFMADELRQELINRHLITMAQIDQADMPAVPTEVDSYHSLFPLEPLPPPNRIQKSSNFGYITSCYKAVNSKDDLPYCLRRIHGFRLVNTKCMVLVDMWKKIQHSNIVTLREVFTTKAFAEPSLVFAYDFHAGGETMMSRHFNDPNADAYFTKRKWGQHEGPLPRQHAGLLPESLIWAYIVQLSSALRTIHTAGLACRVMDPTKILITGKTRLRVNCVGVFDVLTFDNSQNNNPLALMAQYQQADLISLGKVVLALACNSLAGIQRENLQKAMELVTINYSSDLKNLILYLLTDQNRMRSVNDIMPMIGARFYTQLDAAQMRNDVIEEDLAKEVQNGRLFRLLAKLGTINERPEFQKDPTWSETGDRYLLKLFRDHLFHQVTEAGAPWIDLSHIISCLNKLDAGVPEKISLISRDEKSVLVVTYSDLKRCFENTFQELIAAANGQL

[15] = target: PIP5K3 (Homo sapiens, UniProt Q9Y2I7); assay: KiNativ, OCI cells live cell; assay type: cell-based; settings: labeling site ATP, peptide GGKSGAAFYATEDDRFILK
Sequence of PIP5K3 (Q9Y2I7 whole entry): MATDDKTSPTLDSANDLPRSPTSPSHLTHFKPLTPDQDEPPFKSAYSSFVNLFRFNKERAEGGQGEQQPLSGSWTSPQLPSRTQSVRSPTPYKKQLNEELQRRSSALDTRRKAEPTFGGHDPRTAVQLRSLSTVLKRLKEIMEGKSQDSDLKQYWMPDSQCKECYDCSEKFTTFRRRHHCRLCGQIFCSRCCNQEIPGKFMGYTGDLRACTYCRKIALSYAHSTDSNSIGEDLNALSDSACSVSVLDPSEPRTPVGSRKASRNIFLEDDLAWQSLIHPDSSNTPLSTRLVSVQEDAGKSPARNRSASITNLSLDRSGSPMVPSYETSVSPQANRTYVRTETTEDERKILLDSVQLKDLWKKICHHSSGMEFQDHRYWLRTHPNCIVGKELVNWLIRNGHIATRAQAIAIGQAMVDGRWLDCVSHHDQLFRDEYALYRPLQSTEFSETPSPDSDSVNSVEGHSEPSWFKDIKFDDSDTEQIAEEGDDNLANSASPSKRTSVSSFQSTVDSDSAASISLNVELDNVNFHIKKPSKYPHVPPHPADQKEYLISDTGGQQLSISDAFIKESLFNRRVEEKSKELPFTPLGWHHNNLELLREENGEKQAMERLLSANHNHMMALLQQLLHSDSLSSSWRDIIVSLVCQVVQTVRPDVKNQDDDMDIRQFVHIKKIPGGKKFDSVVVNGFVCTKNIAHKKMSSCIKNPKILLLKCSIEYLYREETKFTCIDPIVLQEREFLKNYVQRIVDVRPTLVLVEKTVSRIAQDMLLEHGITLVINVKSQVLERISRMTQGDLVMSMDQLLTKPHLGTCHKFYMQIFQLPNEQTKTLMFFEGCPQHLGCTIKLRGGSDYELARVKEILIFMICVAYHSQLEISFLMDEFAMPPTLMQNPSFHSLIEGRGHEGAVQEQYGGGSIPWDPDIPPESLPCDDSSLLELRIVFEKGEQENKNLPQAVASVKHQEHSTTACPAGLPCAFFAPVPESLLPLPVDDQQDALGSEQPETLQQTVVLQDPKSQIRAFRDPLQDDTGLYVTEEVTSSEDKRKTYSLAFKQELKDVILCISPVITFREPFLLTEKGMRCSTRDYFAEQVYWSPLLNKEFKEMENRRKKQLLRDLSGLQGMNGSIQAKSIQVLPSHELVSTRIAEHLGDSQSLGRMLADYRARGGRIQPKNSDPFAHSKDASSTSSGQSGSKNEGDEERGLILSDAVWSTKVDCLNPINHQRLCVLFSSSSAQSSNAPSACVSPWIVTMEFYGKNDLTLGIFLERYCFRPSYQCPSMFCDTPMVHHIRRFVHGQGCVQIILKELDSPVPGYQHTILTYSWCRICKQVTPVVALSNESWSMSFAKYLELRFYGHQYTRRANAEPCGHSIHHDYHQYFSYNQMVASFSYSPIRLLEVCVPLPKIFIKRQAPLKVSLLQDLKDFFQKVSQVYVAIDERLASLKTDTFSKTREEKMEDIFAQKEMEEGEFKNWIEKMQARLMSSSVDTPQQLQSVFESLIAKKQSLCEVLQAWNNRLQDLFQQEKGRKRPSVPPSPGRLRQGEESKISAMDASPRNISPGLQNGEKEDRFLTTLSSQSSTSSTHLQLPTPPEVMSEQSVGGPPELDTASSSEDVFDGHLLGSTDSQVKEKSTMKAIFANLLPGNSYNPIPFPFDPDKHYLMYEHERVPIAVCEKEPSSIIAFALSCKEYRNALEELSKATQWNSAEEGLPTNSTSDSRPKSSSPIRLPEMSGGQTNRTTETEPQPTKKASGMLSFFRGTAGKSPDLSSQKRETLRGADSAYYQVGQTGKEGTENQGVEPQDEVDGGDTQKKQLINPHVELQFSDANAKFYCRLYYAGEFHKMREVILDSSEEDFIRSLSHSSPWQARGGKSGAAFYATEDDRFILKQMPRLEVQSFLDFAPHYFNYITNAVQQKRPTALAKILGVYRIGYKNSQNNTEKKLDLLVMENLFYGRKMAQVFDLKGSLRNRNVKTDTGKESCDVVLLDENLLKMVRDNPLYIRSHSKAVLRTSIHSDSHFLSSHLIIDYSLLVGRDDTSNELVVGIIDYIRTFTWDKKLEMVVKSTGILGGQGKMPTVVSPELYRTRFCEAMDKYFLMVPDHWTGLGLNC

[16] = target: SBK (Homo sapiens, UniProt Q52WX2); assay: KiNativ, OCI cells live cell; assay type: cell-based; settings: 2 h, labeling site Lys2, peptide […]
[17] = target: TAO2 (Homo sapiens, UniProt Q9UL54); assay: KiNativ, OCI cells live cell; assay type: cell-based; settings: 2 h, labeling site Lys2, peptide […]
[18] = system: Wnk1, Wnk2, Wnk3; assay: KiNativ, OCI cells live cell; assay type: cell-based, human; settings: labeling site Lys2, peptide DLKCDNIFITGPTGSVK
[19] = system: ZC1/HGK, ZC2/TNIK, ZC3/MINK; assay: KiNativ, OCI cells live cell; assay type: cell-based, human; settings: labeling site Lys2, peptide DIKGQNVLLTENAEVK

Sequence of CDC2 (P06493 whole entry): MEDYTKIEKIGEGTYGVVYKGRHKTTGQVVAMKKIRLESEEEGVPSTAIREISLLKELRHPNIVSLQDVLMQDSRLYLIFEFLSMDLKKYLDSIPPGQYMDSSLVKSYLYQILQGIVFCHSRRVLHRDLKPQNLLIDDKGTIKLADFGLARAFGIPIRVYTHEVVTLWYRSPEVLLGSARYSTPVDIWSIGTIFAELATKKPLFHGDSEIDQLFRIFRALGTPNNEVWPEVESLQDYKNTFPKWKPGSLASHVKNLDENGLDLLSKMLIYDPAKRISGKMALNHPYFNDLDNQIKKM
T1 sequence (Q96GD4 whole entry): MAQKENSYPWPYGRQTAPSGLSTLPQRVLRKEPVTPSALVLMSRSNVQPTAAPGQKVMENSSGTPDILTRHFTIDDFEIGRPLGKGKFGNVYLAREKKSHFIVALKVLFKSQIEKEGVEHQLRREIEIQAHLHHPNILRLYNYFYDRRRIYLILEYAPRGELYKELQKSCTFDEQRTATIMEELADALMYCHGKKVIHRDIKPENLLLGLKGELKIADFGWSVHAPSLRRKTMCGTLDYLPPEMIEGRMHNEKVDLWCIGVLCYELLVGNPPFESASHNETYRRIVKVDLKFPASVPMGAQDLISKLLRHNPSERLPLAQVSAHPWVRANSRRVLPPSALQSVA
Sequence of CaMK4 (Q16566 whole entry): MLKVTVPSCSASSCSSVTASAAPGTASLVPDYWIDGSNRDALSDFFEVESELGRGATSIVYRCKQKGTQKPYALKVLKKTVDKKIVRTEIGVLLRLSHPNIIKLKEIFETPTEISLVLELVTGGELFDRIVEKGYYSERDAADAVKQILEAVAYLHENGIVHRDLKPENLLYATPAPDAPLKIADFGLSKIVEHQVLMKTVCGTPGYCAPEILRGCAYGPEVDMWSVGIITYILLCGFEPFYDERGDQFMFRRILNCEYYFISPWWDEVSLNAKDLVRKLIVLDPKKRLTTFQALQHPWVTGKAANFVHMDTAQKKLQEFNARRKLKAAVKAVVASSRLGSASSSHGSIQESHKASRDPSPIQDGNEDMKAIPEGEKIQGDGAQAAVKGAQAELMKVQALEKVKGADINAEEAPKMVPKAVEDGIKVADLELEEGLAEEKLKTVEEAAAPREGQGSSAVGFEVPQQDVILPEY

**Q.** How did the Kd [1] turn out when `CN1CCN(Cc2ccc(Nc3ncc(Cl)c(Nc4ccccc4S(=O)(=O)N(C)C)n3)cc2)CC1` [TP-0903] was run?
**A.** < 5 nM

**Q.** What about the inhibition at 0.1 µM [2] of the same compound?
**A.** -2.6%

**Q.** And the inhibition at 0.1 µM ([3]; labeling site Lys1, peptide TTGQVVAMKK)?
**A.** -4.5%

**Q.** What about the inhibition at 0.1 µM ([3]; labeling site Lys2, peptide DLKPQNLLIDDK) of the same compound?
**A.** -2.5%

**Q.** And the inhibition at 0.1 µM ([3]; labeling site Protein Kinase Domain, peptide KPLFHGDSEIDQLFR)?
**A.** -37.1%

**Q.** What about the inhibition at 0.1 µM [4] of the same compound?
**A.** 24.3%

**Q.** What about the Inhibition [5] of the same compound?
**A.** 57.2%

**Q.** And the inhibition at 0.1 µM [6]?
**A.** 17.7%

**Q.** And the inhibition at 0.1 µM ([7]; labeling site Lys1, peptide WQGNDIVVKVLK)?
**A.** -21.7%

**Q.** What about the inhibition at 0.1 µM ([7]; labeling site Protein Kinase Domain, peptide ISMADVKFSFQCPGR) of the same compound?
**A.** -42.5%

**Q.** What about the inhibition at 0.1 µM ([8]; labeling site Activation Loop, peptide EGAKFPIKWTAPEAINFGCFTIK) of the same compound?
**A.** 19.1%

**Q.** What about the inhibition at 0.1 µM ([8]; labeling site Lys1, peptide VAVKTLKPGTMSVQAFLEEANLMK) of the same compound?
**A.** 17.6%

**Q.** What about the Inhibition [9] of the same compound?
**A.** 11.7%

**Q.** What about the inhibition at 0.1 µM [10] of the same compound?
**A.** 57.6%

**Q.** And the inhibition at 0.1 µM ([11]; labeling site Lys1, peptide NVHTGELAAVKIIK)?
**A.** 28.4%

**Q.** And the inhibition at 0.1 µM ([11]; labeling site Lys2, peptide DIKGANILLTDHGDVK)?
**A.** 60.8%

**Q.** And the Inhibition [12]?
**A.** 18.3%

**Q.** And the inhibition at 0.1 µM ([13]; labeling site Lys1, peptide DTGHIYAMKILR)?
**A.** 21.5%

**Q.** And the inhibition at 0.1 µM ([13]; labeling site Lys2, peptide DIKPDNLLLDAK)?
**A.** -7%

**Q.** What about the inhibition at 0.1 µM ([14]; peptide IQKSSNFGYITSCYK) of the same compound?
**A.** -8.4%

**Q.** What about the inhibition at 0.1 µM ([14]; peptide VMDPTKILITGK) of the same compound?
**A.** -9.4%

**Q.** And the Inhibition [15]?
**A.** 18.4%

**Q.** What about the inhibition at 0.1 µM [16] of the same compound?
**A.** -0.9%

**Q.** What about the inhibition at 0.1 µM [17] of the same compound?
**A.** 73.7%

**Q.** What about the Inhibition [18] of the same compound?
**A.** -14.9%

**Q.** What about the Inhibition [19] of the same compound?
**A.** -42.0%
